Results as given in PMC9432691, “Characterisation of a soil MINPP phytase with remarkable long-term stability and activity from Acinetobacter sp” (PLoS ONE, 2022).

Molecular target: T1, AtITPK1 (inositol tris/tetrakisphosphate kinase 1) (Arabidopsis thaliana, UniProt Q9SBA5)
T1 construct: gene ITPK1
T1 sequence (Q9SBA5 2-319): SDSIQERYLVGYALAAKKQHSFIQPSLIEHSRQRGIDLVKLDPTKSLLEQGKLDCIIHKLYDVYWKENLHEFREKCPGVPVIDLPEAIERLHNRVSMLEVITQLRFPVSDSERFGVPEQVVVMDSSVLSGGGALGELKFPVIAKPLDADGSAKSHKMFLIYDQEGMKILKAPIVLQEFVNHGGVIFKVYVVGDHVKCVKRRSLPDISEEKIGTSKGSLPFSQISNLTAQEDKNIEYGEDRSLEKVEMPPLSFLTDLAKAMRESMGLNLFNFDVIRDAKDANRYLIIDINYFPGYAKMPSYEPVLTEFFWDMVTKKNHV
Test: pyrophosphorylation assay with […] substrate, HPLC; […] conversion
Format: biochemical

O=P(O)(O)O[C@H]1[C@H](OP(=O)(O)O)[C@@H](OP(=O)(O)O)[C@H](OP(=O)(O)O)[C@@H](OP(=O)(O)O)[C@H]1OP(=O)(O)O [InsP6, myo-inositol 1,2,3,4,5,6-hexakisphosphate]
% conversion: 90 % conversion
